Results reported in PubChem BioAssay AID608 (Sanford-Burnham Center for Chemical Genomics, 2007).
Active and inactive are the calls of the source. How the calls were made is not given here.

biological target: Peptidyl-prolyl cis-trans isomerase FKBP1A (Homo sapiens) (UniProt P62942); assay: FKBP12 binders, biophysical, NMR detection (AID 608); conditions: NMR binding, purified FKBP12
Sequence (P62942 whole entry, looked up): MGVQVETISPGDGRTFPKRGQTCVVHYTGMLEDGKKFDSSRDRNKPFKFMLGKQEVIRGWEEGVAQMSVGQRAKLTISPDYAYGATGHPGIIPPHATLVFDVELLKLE

| SMILES | Kd |
| --- | --- |
| CS/C(N)=C\C(C)=O | > 4 mM (inactive) |
| COC(=O)CSc1nnc(-c2ccc(C(=O)O)cc2)o1 | > 4 mM (inactive) |
| C[n+]1ccc(C(=O)[O-])cc1 | > 4 mM (inactive) |
| COc1cc(N)ccc1NC(=O)c1cccs1 | > 4 mM (inactive) |
| O=c1cc(-c2ccc(O)cc2)[nH]c(=S)[nH]1 | > 4 mM (inactive) |
| Cc1cc2cc(N)ccc2[nH]1 | > 4 mM (inactive) |
| O=C1CSC(=O)N1CN1CCOCC1 | > 4 mM (inactive) |
| c1ccc2c(c1)nc(-c1cscn1)n2Cc1ccc(-c2nn[nH]n2)cc1 | inactive |
| COC(=O)c1cccc(C(F)(F)F)c1 | > 4 mM (inactive) |
| O=C(O)CNC(=O)c1ccccc1Cl | > 4 mM (inactive) |
| CCNC(=S)NS(=O)(=O)c1ccccc1 | > 4 mM (inactive) |
| C=C1CCC(=O)C(C)CCC2C1CC2(C)C (stereo unspecified) | > 4 mM (inactive) |
| NCC(N)C(=O)c1ccccc1 (stereo unspecified) | > 4 mM (inactive) |
| CC1SC(=NC(=O)c2ccco2)NC1=O (stereo unspecified) | > 4 mM (inactive) |
| O=C(O)c1ccc2snnc2c1 | > 4 mM (inactive) |
| OCc1ccncc1 | > 4 mM (inactive) |
| COc1cc(-c2nnc(NC(C)=O)o2)cc(OC)c1OC | > 4 mM (inactive) |
| CC1CCC2(OC1)OC1CC3C4CC[C@H]5C[C@@H](O)CC[C@]5(C)C4CC(=O)[C@]3(C)C1C2C (stereo partly specified) | > 4 mM (inactive) |
| CCOC(=O)C1CCC(=O)c2cccn21 (stereo unspecified) | > 4 mM (inactive) |
| CC(C)=CCC[C@](C)(O)C1CC=C(C)CC1 (stereo partly specified) | > 4 mM (inactive) |
| Cc1ccc(C)c(C(=O)n2cnnc2N)c1 | > 4 mM (inactive) |
| NC(=O)c1ccc(SCC(=O)O)c([N+](=O)[O-])c1 | > 4 mM (inactive) |
| CN(C)C(=O)CSc1nc2ccccc2c(=O)[nH]1 | > 4 mM (inactive) |
| Nc1ccc(CN2CCS(=O)(=O)CC2)cc1 | > 4 mM (inactive) |
| Cc1ccc(/C=N/NC(N)=O)o1 | > 4 mM (inactive) |

| SMILES | Kd |
| --- | --- |
| CC(C)C(C)/C=C/C(C)[C@H]1CCC2C3=CCC4CC(=O)CC[C@]4(C)C3CC[C@@]21C (stereo partly specified) | > 4 mM (inactive) |
| COc1ccc2c(=O)c(CC(=O)O)coc2c1 | > 4 mM (inactive) |
| CN1CCN(CC(O)c2ccccc2)CC1 (stereo unspecified) | > 4 mM (inactive) |
| Cc1noc(C)c1C(=O)N1CCN(c2ncccn2)CC1 | > 4 mM (inactive) |
| CCCCCCCCCCCC[C@H](C(=O)O)[C@@H](C)C(=O)O | > 4 mM (inactive) |
| Nc1nc(-c2ccccc2)ns1 | > 4 mM (inactive) |
| CN1CCC(NC(=O)c2cnccn2)CC1 | > 4 mM (inactive) |
| NS(=O)(=O)c1ccc(N2CCCC2=O)cc1 | > 4 mM (inactive) |
| CCOC(=O)C1C(=O)C2CCN1CC2 (stereo unspecified) | > 4 mM (inactive) |
| NC(=S)NC(=O)CN1C(=O)c2ccccc2C1=O | > 4 mM (inactive) |
| NC(=S)N1CCC(c2ccccc2)=N1 | > 4 mM (inactive) |
| O=C(Nc1nccs1)c1ccc(=O)[nH]n1 | > 4 mM (inactive) |
| O=C(O)c1c[nH]c2ccccc12 | > 4 mM (inactive) |
| CC1CN(C(=O)c2ccncc2)CC(C)O1 (stereo unspecified) | > 4 mM (inactive) |
| NCC1COc2ccccc2O1 (stereo unspecified) | > 4 mM (inactive) |
| Cc1ccc(NC(=O)CN2C(=O)CSC2=O)cc1 | > 4 mM (inactive) |
| Cc1nc2ccc(C(=O)O)cc2[nH]1 | > 4 mM (inactive) |
| Cc1cc(=O)n2[nH]c(COc3ccccc3)nc2n1 | > 4 mM (inactive) |
| O=c1[nH]c2sc3c(c2c2nncn12)CCCC3 | > 4 mM (inactive) |
| O=C(NC(=O)N1CCOCC1)c1ccccc1 | > 4 mM (inactive) |
| CC(C)=CCOc1cc2oc(=O)ccc2cc1O | > 4 mM (inactive) |
| Cc1cc(C)c(NC(=O)CN2CCC(O)CC2)c(C)c1 | > 4 mM (inactive) |
| Cc1c(C(=O)O)cnn1-c1ccccc1 | > 4 mM (inactive) |
| Cc1ccc(NS(=O)(=O)N2CCOCC2)cc1 | inactive |
| CC12CN3CC(C)(CN(C1)C3c1cccs1)C2O (stereo unspecified) | > 4 mM (inactive) |

| SMILES | Kd |
| --- | --- |
| Clc1ccc(-c2nnc3ccccn23)cc1 | > 4 mM (inactive) |
| COc1ccc(Cl)cc1-c1n[nH]c(=S)n1C | > 4 mM (inactive) |
| O=C(O)CCNc1n[nH]c(=O)[nH]c1=O | > 4 mM (inactive) |
| Cc1cc(C)n(S(=O)(=O)c2cc(C)c(C)cc2C)n1 | > 4 mM (inactive) |
| CC(C)c1ccccc1OCC(=O)N1CCOCC1 | > 4 mM (inactive) |
| COC(=O)Nc1nnc(-c2ccncc2)s1 | > 4 mM (inactive) |
| CC1(C)CN=C(Nc2nc3ccccc3s2)S1 | > 4 mM (inactive) |
| CC(=O)Oc1ccc2c(c1OC(C)=O)OCC1(O)Cc3c(cc(OC(C)=O)c(OC(C)=O)c3OC(C)=O)C21 (stereo unspecified) | > 4 mM (inactive) |
| Nc1nc(-c2ccc(Cl)cc2)nn1C(=O)c1cccnc1 | > 4 mM (inactive) |
| COc1ccc(C2CC(=O)NN2)cc1OC1CCCC1 (stereo unspecified) | > 4 mM (inactive) |
| COc1ccc(Cl)cc1NC(=O)C(N)=O | > 4 mM (inactive) |
| O=C(O)c1coc2c1C(=O)CCC2 | > 4 mM (inactive) |
| O=C1C=CC(=O)c2c(O)cccc21 | > 4 mM (inactive) |
| COc1cc2c(cc1OC)[C@@]13CCN4CC5=CCOC6CC(=O)N2C1[C@H]6[C@H]5C[C@H]43 (stereo partly specified) | > 4 mM (inactive) |
| CC(=O)Nc1cccc(N(C)S(C)(=O)=O)c1 | > 4 mM (inactive) |
| CC(C)CCCC1(C)C=Cc2c(O)c3c(c(CCC(C)C)c2O1)OC12C(CC4CC1C(C)(C)OC2(CCC(C)C(=O)O)C4O)C3=O (stereo unspecified) | > 4 mM (inactive) |
| Nc1cc(=O)[nH]c(=O)n1Cc1ccco1 | > 4 mM (inactive) |
| Cc1nc2ccccc2c(=O)n1CCCn1ccnc1 | > 4 mM (inactive) |
| O=C(Nc1ccon1)c1csc2c1CCCC2 | > 4 mM (inactive) |
| O=P(O)(Cc1ccccc1)c1ccccc1 | > 4 mM (inactive) |
| O=C(O[C@@H]1Cc2c(O)cc(O)cc2O[C@@H]1c1ccc(O)c(O)c1)c1cc(O)c(O)c(O)c1 | > 4 mM (inactive) |
| O=C(O)CCc1nc2ccccc2[nH]c1=O | > 4 mM (inactive) |
| N#Cc1c(N)c(C(=O)c2ccccc2)n2c1CCC2 | > 4 mM (inactive) |
| CC1(C)CC(=O)c2sc(N)nc2C1 | > 4 mM (inactive) |
| COc1ccc(C(=O)NCC(=O)O)cc1 | > 4 mM (inactive) |

| SMILES | Kd |
| --- | --- |
| O=C(Nc1ccc2c(c1)OCO2)c1cccs1 | > 4 mM (inactive) |
| COc1ccccc1C(=O)NC1CCN(C)CC1 | > 4 mM (inactive) |
| CNC(=O)c1cccc(NC(=S)NC)c1 | > 4 mM (inactive) |
| CC(=O)NCC1(c2ccccc2)CCOCC1 | > 4 mM (inactive) |
| C=CCCCCCCCCCCCc1ccco1 | > 4 mM (inactive) |
| O=C1Nc2ccccc2C1(O)Cc1ccncc1 (stereo unspecified) | > 4 mM (inactive) |
| COC(=O)c1c(C)cc(OC)cc1O | > 4 mM (inactive) |
| COc1ccc(S(N)(=O)=O)cc1 | > 4 mM (inactive) |
| CNC(=O)c1ccccc1N | > 4 mM (inactive) |
| Cc1noc(C)c1C(=O)Nc1ccccn1 | > 4 mM (inactive) |
| O=C(NC1CCS(=O)(=O)C1)c1ccccc1 (stereo unspecified) | > 4 mM (inactive) |
| COc1cc(CNCCc2ccc(S(N)(=O)=O)cc2)ccc1OCC(=O)N1CCOCC1 | > 4 mM (inactive) |
| Oc1ccc(-n2cncn2)cc1 | > 4 mM (inactive) |
| COc1ccc2c(c1)[n+](=O)c(C(C)=O)c(C)n2[O-] | > 4 mM (inactive) |
| Cc1cc2nc3c(=O)[nH]c(=O)nc-3n(CC(O)C(O)C(O)CO)c2cc1C (stereo unspecified) | > 4 mM (inactive) |
| COc1ccc(S(=O)(=O)N2CCOCC2)cc1C(C)C | > 4 mM (inactive) |
| O=C(NCc1cccc(Cl)c1)c1cnccn1 | > 4 mM (inactive) |
| O=S(=O)(Cc1ccc(Cl)cc1)N1CCCC1 | > 4 mM (inactive) |
| COc1ccc(S(=O)(=O)N2CCC(C(N)=O)CC2)cc1 | > 4 mM (inactive) |
| O=C(NCc1cccs1)c1nn2cccnc2c1Cl | > 4 mM (inactive) |
| C[C@@H]1CCC2[C@](C)(CO)[C@@H](O)CC[C@]2(C)[C@@]12CC[C@@](CO)(CCO)O2 (stereo partly specified) | > 4 mM (inactive) |
| COc1ccc(Cc2nnc3c4cnn(C)c4ncn23)cc1 | > 4 mM (inactive) |
| O=C1NNC(=O)C2C3c4ccccc4C(c4ccccc43)C12 (stereo unspecified) | > 4 mM (inactive) |
| CC12CN(CC#N)CC(C)(CN(CC#N)C1)C2=O | > 4 mM (inactive) |
| Cc1cc(OC(=O)c2ccco2)c([N+](=O)[O-])c(=O)[nH]1 | > 4 mM (inactive) |

| SMILES | Kd |
| --- | --- |
| O=C(O)Cn1nnn(-c2ccccc2)c1=S | > 4 mM (inactive) |
| COc1ccc2c(c1)OCC(Cc1ccc(OC)c(O)c1)C2=O (stereo unspecified) | > 4 mM (inactive) |
| O=C(NC1=NCCS1)c1cccc(F)c1 | > 4 mM (inactive) |
| NC(=O)CC1Sc2ccccc2NC1=O (stereo unspecified) | > 4 mM (inactive) |
| C[C@@H]1[C@H]2[C@H](O[C@@H]3O[C@H](CO)[C@@H](O)[C@H](O)[C@H]3O)OC=C(C(=O)O)[C@H]2C[C@@H]1O | > 4 mM (inactive) |
| CC1(C)NC(=O)N(CN2CCOCC2)C1=O | > 4 mM (inactive) |
| CCSc1nc(N)c(NC(=O)c2ccco2)c(=O)[nH]1 | > 4 mM (inactive) |
| OCc1nc2ccccc2s1 | > 4 mM (inactive) |
| COc1c(-c2ccccc2)oc2c(OC)cccc2c1=O | > 4 mM (inactive) |
| CS(=O)(=O)c1ccccc1C(=O)Nc1nccs1 | > 4 mM (inactive) |
| COc1ccc(N=C2NC(=O)CS2)cc1 | > 4 mM (inactive) |
| OC1CNCc2cc3c(cc21)OCCO3 (stereo unspecified) | > 4 mM (inactive) |
| Cc1c(C)[n+]([O-])c(-c2ccc([N+](=O)[O-])cc2)n1O | > 4 mM (inactive) |
| Cc1nnc(NCc2cccnc2)[nH]c1=O | > 4 mM (inactive) |
| CCOC(=O)N1CCCC1c1cccnc1 (stereo unspecified) | > 4 mM (inactive) |
| O=S(=O)(Nc1ccc(F)cc1)N1CCCCC1 | inactive |
| CC(=O)N=c1cccc(NC(C)=O)n1O | > 4 mM (inactive) |
| NC(=O)c1ccccc1N1CCCCC1 | > 4 mM (inactive) |
| O=C(C(Sc1ccccc1)c1ccccc1)N1CCOCC1 (stereo unspecified) | 0.146 mM |
| O=c1c2ccccc2nc2n1CCC2O (stereo unspecified) | > 4 mM (inactive) |
| O=C(c1sc2cc([N+](=O)[O-])ccc2c1Cl)N1CCOCC1 | inactive |
